How the values were obtained:
Assay in all cases: relative viability (nuclei count vs DMSO), 5 days (fraction); higher = more cells survive
NCI-H1651 = test system: NCI-H1651
In short: (§1)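 For relative viability, nuclei counts in treated wells were divided by those in vehicle wells. Lung cancer cell lines had been pin-tool dosed in 1536-well plates the day after seeding and cultured for 5 days, then fixed and stained in one step (final 0.05% Triton X-100, 1% formaldehyde, 1 ug/ml Hoechst) and imaged at 4×. Doses were one drug alone or a fixed anchor-drug dose plus five library-drug doses (not always all listed) in √10 steps, and values are duplicate-plate medians.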

RERF-LC-KJ = test system: RERF-LC-KJ
In short: as §1

NCI-H838 = test system: NCI-H838
In short: as §1

NCI-H1648 = test system: NCI-H1648
In short: as §1

NCI-H520 = test system: NCI-H520
In short: as §1

NCI-H1944 = test system: NCI-H1944
In short: as §1

NCI-H650 = test system: NCI-H650
In short: as §1

NCI-H1703 = test system: NCI-H1703
In short: as §1

Calu-6 = test system: Calu-6
In short: as §1

EBC-1 = test system: EBC-1
In short: as §1

NCI-H1299 = test system: NCI-H1299
In short: as §1

A549 = test system: A549
In short: as §1

IA-LM = test system: IA-LM
In short: as §1

CCN(CC)CCCCNc1ncc2cc(-c3cc(OC)cc(OC)c3)c(NC(=O)NC(C)(C)C)nc2n1 + Nc1nc2[nH]cc(CCc3ccc(C(=O)N[C@@H](CCC(=O)O)C(=O)O)cc3)c2c(=O)[nH]1 [Pemetrexed] (partner 0.2 µM)
relative viability (NCI-H1651; first compound 0.01 µM): 0.597
relative viability (NCI-H1651; first compound 0.03162 µM): 0.635
relative viability (NCI-H1651; first compound 0.1 µM): 0.643
relative viability (NCI-H1651; first compound 0.3162 µM): 0.787
relative viability (NCI-H1651; first compound 1 µM): 0.495
relative viability (RERF-LC-KJ; first compound 0.01 µM): 0.497
relative viability (RERF-LC-KJ; first compound 0.03162 µM): 0.487
relative viability (RERF-LC-KJ; first compound 0.1 µM): 0.499
relative viability (RERF-LC-KJ; first compound 0.3162 µM): 0.428
relative viability (RERF-LC-KJ; first compound 1 µM): 0.514
relative viability (NCI-H838; first compound 0.01 µM): 0.242
relative viability (NCI-H838; first compound 0.03162 µM): 0.245
relative viability (NCI-H838; first compound 0.1 µM): 0.225
relative viability (NCI-H838; first compound 0.3162 µM): 0.234
relative viability (NCI-H838; first compound 1 µM): 0.224
relative viability (NCI-H1648; first compound 0.01 µM): 0.7
relative viability (NCI-H1648; first compound 0.03162 µM): 0.815
relative viability (NCI-H1648; first compound 0.1 µM): 0.722
relative viability (NCI-H1648; first compound 0.3162 µM): 0.491
relative viability (NCI-H1648; first compound 1 µM): 0.487
relative viability (NCI-H520; first compound 0.01 µM): 0.8
relative viability (NCI-H520; first compound 0.03162 µM): 0.694
relative viability (NCI-H520; first compound 0.1 µM): 0.555
relative viability (NCI-H520; first compound 0.3162 µM): 0.511
relative viability (NCI-H520; first compound 1 µM): 0.314
relative viability (NCI-H1944; first compound 0.01 µM): 0.603
relative viability (NCI-H1944; first compound 0.03162 µM): 0.804
relative viability (NCI-H1944; first compound 0.1 µM): 0.705
relative viability (NCI-H1944; first compound 0.3162 µM): 0.631
relative viability (NCI-H1944; first compound 1 µM): 0.605
relative viability (NCI-H650; first compound 0.01 µM): 0.877
relative viability (NCI-H650; first compound 0.03162 µM): 0.842
relative viability (NCI-H650; first compound 0.1 µM): 1.04
relative viability (NCI-H650; first compound 0.3162 µM): 1.03
relative viability (NCI-H650; first compound 1 µM): 0.948

O=c1cc(-c2cccc3c2Sc2ccccc2S3)oc(N2CCOCC2)c1 + Nc1nc2[nH]cc(CCc3ccc(C(=O)N[C@@H](CCC(=O)O)C(=O)O)cc3)c2c(=O)[nH]1 [Pemetrexed] (partner 0.2 µM)
relative viability (NCI-H1651; first compound 0.08 µM): 0.563
relative viability (NCI-H1651; first compound 0.253 µM): 0.636
relative viability (NCI-H1651; first compound 0.8 µM): 0.604
relative viability (NCI-H1651; first compound 2.53 µM): 0.589
relative viability (NCI-H1651; first compound 8 µM): 0.603
relative viability (RERF-LC-KJ; first compound 0.08 µM): 0.443
relative viability (RERF-LC-KJ; first compound 0.253 µM): 0.469
relative viability (RERF-LC-KJ; first compound 0.8 µM): 0.504
relative viability (RERF-LC-KJ; first compound 2.53 µM): 0.474
relative viability (RERF-LC-KJ; first compound 8 µM): 0.469
relative viability (NCI-H838; first compound 0.08 µM): 0.266
relative viability (NCI-H838; first compound 0.253 µM): 0.245
relative viability (NCI-H838; first compound 0.8 µM): 0.249
relative viability (NCI-H838; first compound 2.53 µM): 0.226
relative viability (NCI-H838; first compound 8 µM): 0.226
relative viability (NCI-H1648; first compound 0.253 µM): 0.701
relative viability (NCI-H1648; first compound 0.8 µM): 0.624
relative viability (NCI-H1648; first compound 8 µM): 0.749
relative viability (NCI-H520; first compound 0.08 µM): 0.634
relative viability (NCI-H520; first compound 0.253 µM): 0.835
relative viability (NCI-H520; first compound 0.8 µM): 0.739
relative viability (NCI-H520; first compound 2.53 µM): 0.717
relative viability (NCI-H520; first compound 8 µM): 0.69
relative viability (NCI-H1944; first compound 0.08 µM): 0.642
relative viability (NCI-H1944; first compound 0.253 µM): 0.518
relative viability (NCI-H1944; first compound 0.8 µM): 0.636
relative viability (NCI-H1944; first compound 2.53 µM): 0.516
relative viability (NCI-H1944; first compound 8 µM): 0.698
relative viability (NCI-H650; first compound 0.08 µM): 0.917
relative viability (NCI-H650; first compound 0.253 µM): 0.964
relative viability (NCI-H650; first compound 0.8 µM): 0.878
relative viability (NCI-H650; first compound 2.53 µM): 0.74
relative viability (NCI-H650; first compound 8 µM): 0.866

COc1nc(C)cnc1NS(=O)(=O)c1cccnc1-c1ccc(-c2nnco2)cc1 [Zibotentan] + C[C@@H](Oc1cc(-c2cnn(C3CCNCC3)c2)cnc1N)c1c(Cl)ccc(F)c1Cl [Crizotinib] (partner 1 µM)
relative viability (NCI-H1703; first compound 0.08 µM): 0.722
relative viability (NCI-H1703; first compound 0.253 µM): 0.756
relative viability (NCI-H1703; first compound 0.8 µM): 0.864
relative viability (NCI-H1703; first compound 2.53 µM): 0.555
relative viability (NCI-H1651; first compound 0.08 µM): 0.962
relative viability (NCI-H1651; first compound 0.253 µM): 0.823
relative viability (NCI-H1651; first compound 0.8 µM): 0.837
relative viability (NCI-H1651; first compound 2.53 µM): 0.862
relative viability (Calu-6; first compound 0.08 µM): 0.854
relative viability (Calu-6; first compound 0.253 µM): 0.786
relative viability (Calu-6; first compound 0.8 µM): 0.741
relative viability (Calu-6; first compound 2.53 µM): 0.752
relative viability (EBC-1; first compound 0.08 µM): 0.176
relative viability (EBC-1; first compound 0.253 µM): 0.194
relative viability (EBC-1; first compound 0.8 µM): 0.202
relative viability (EBC-1; first compound 2.53 µM): 0.223
relative viability (NCI-H1299; first compound 0.08 µM): 0.949
relative viability (NCI-H1299; first compound 0.253 µM): 0.924
relative viability (NCI-H1299; first compound 0.8 µM): 0.95
relative viability (NCI-H1299; first compound 2.53 µM): 0.968
relative viability (RERF-LC-KJ; first compound 0.08 µM): 0.921
relative viability (RERF-LC-KJ; first compound 0.253 µM): 0.802
relative viability (RERF-LC-KJ; first compound 0.8 µM): 0.786
relative viability (RERF-LC-KJ; first compound 2.53 µM): 0.855
relative viability (NCI-H838; first compound 0.08 µM): 0.918
relative viability (NCI-H838; first compound 0.253 µM): 0.826
relative viability (NCI-H838; first compound 0.8 µM): 0.82
relative viability (NCI-H838; first compound 2.53 µM): 0.848
relative viability (A549; first compound 0.08 µM): 0.932
relative viability (A549; first compound 0.253 µM): 0.696
relative viability (A549; first compound 0.8 µM): 0.742
relative viability (A549; first compound 2.53 µM): 0.761
relative viability (NCI-H520; first compound 0.08 µM): 0.857
relative viability (NCI-H520; first compound 0.253 µM): 0.747
relative viability (NCI-H520; first compound 0.8 µM): 0.798
relative viability (NCI-H520; first compound 2.53 µM): 0.893
relative viability (NCI-H1944; first compound 0.08 µM): 1.26
relative viability (NCI-H1944; first compound 0.253 µM): 1.08
relative viability (NCI-H1944; first compound 0.8 µM): 1.06
relative viability (NCI-H1944; first compound 2.53 µM): 1.06
relative viability (NCI-H650; first compound 0.08 µM): 0.856
relative viability (NCI-H650; first compound 0.253 µM): 0.661
relative viability (NCI-H650; first compound 0.8 µM): 0.705
relative viability (NCI-H650; first compound 2.53 µM): 0.792
relative viability (IA-LM; first compound 0.08 µM): 0.809
relative viability (IA-LM; first compound 0.253 µM): 0.702
relative viability (IA-LM; first compound 0.8 µM): 1.1
relative viability (IA-LM; first compound 2.53 µM): 0.975

— the supplement of paper PMC10307832
